Legend:
[1] = system: HIF-1A; assay: HIF-1A expression by Western blot in PC-3 and LNCaP cells; type: cell-based, human; conditions: 25 µM
Description: To further confirm the compound 8c-induced activation of AMPK, PC-3 and LNCaP cells were incubated with the compound for 1 h and 24 hours in the presence of the AMPK inhibitor Dorsomorphin. […] Accordingly, ACC phosphorylation was increased at 1 h and 24 h and prevented by Dorsomorphin in both cell lines. AMPK inhibits mTORC1 through phosphorylation of Raptor on two well-conserved serine residues (ser722 and ser792) inducing cell-cycle arrest in response to an energy stress. To further support the 8c-induced AMPK activation, we determined Raptor phosphorylation on Ser792 in prostate cells.
Figure 5 AMPK activation by compound 8c in prostate cancer cells. (A) PC-3 and LNCaP cells were treated with vehicle, 25 µM compound 8c, 25 µM compound 8c + 5 μM Dorsomorphin (8c + D) or 5 μM Dorsomorphin (D), for 1 hour or 24 hours and levels of the phosphorylated AMPK (pAMPK), phosphorylated ACC (pACC), phosphorylated Raptor (pRaptor) forms and HIF1α were determined by Western blot. Upper panel, representative Western blot of three different experiments. β-tubulin (β-Tub) serves as a loading control. […] (B) Cell viability monitored by MTT assay in PC-3 and LNCaP cells treated with vehicle, 25 µM and 50 μM compound 8c alone or in the presence of 5 μM Dorsomorphin or transfected with control siRNA (siC) or α1AMPK-selective siRNA (siAMPK). […]

[2] = biological target: T1, human recombinant AMPK isoform α1β1γ1 (Homo sapiens, UniProt P54619+Q13131+Q9Y478); assay: In vitro AMPK enzymatic assay (AMARA peptide, Delfia), α1β1γ1; type: biochemical; conditions: 30 μM, p < 0.001
T1 construct: purchased Invitrogen
T1 sequence (Q13131 whole entry, canonical isoform): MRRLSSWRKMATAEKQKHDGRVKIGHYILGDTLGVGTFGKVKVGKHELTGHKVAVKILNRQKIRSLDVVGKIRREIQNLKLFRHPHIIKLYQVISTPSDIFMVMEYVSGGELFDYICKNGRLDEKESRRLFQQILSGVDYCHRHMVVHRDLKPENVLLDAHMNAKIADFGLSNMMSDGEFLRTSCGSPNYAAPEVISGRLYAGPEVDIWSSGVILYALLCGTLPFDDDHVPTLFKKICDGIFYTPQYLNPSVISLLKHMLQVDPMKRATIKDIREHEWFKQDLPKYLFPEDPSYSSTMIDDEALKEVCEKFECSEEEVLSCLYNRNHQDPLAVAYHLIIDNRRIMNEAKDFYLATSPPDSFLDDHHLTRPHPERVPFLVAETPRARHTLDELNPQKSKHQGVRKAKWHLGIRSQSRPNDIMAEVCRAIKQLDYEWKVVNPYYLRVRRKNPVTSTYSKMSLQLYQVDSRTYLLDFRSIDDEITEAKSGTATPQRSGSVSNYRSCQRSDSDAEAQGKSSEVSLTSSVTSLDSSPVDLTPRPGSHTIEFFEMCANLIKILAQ
T1 sequence (Q9Y478 whole entry, canonical isoform): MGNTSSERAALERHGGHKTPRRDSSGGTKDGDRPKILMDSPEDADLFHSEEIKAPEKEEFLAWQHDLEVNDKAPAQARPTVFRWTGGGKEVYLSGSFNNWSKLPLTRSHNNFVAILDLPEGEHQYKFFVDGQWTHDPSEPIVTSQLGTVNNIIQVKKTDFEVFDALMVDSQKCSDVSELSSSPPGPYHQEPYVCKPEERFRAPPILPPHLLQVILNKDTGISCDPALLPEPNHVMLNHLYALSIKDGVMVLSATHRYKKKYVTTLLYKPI
T1 sequence (P54619 whole entry, canonical isoform): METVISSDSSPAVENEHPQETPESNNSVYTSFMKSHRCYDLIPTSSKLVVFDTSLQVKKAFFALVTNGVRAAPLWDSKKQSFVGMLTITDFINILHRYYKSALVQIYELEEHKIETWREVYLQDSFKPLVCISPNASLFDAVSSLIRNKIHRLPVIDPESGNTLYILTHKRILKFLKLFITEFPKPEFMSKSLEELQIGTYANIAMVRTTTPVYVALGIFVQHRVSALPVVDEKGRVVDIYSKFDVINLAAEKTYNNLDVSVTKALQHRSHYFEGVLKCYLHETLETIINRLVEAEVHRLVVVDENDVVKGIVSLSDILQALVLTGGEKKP
Description: This assay evaluated the ability of the compound to activate AMPK and in turn phosphorylate the synthetic substrate peptide [sequence].
Data are the mean ± S.D. of four experiments. **p < 0.01 and ***p < 0.001 compared by the Student’s t-test.
The effect of compounds in the in vitro human recombinant AMPK activity assay was measured by monitoring phosphorylation of the “AMARA” peptide using Delfia technology. […] Final concentration of DMSO was 1%. Reactions were initiated by the addition of AMPK (0.1U). Following mixing, the plates were incubated for 30 min at room temperature. Enzyme activity was assayed by using an anti-phospho-serine antibody to measure the quantity of phosphate incorporated into the AMARAA peptide.

[3] = system: LNCaP cells; assay: Cell cycle analysis by flow cytometry (Propidium Iodide), LNCaP; type: cell-based, human; conditions: 24 h, 25 μM and 50 μM
Description: For that, we treated PC-3 and LNCaP cells with 25 μM and 50 μM of compound 8c for 24 h and performed cell cycle analysis by flow cytometry using Propidium Iodide (PI). […] It is worthy to note that when PC-3 cells were treated with compound 8c, 80% of cells were in subG0 phase (Fig. 4A).
Figure 4 Cell Cycle analysis in 8c-treated prostate cancer cells. (A) PC-3 and LNCaP cells were treated with compound 8c for 24 hours and cell cycle analysis was analyzed by flow cytometry using Propidium Iodide (PI). Percentage of cells in subG0, G1, S, and G2/M phases is indicated in the histogram. (B) Levels of Cyclin D1, p-p53, p53, p21 and cleaved Caspase 3 (17 kDa fragment) were determined by Western blot. Upper panel, representative Western blot of two different experiments. β-tubulin (β-Tub) serves as a loading control. Lower panel, the densitometric analyses of bands represented as the mean ± SD of the two different experiments. *p < 0.05 and **p < 0.01 compared with the control group by the Student’s t-test.
Flow cytometry was used to detect the distribution of cell cycle. After being cultivated with the treatment, 10^5 cells in 35 mm culture dish were harvested in 0.35% trypsin, collected and fixed with 70% cold ethanol at 4 °C for 1 h. Then, cells were centrifuged at 1500 g for 5 min and incubated in 0.5 ml PBS containing 0.1 mg/ml RNase for 30 min at 37 °C. […]

[4] = system: Androgen Receptor (AR); assay: Androgen Receptor expression by Western blot in LNCaP cells; type: cell-based, human; conditions: 25 µM, 24 hours
Description: Figure 5 AMPK activation by compound 8c in prostate cancer cells. (A) PC-3 and LNCaP cells were treated with vehicle, 25 µM compound 8c, 25 µM compound 8c + 5 μM Dorsomorphin (8c + D) or 5 μM Dorsomorphin (D), for 1 hour or 24 hours and levels of the phosphorylated AMPK (pAMPK), phosphorylated ACC (pACC), phosphorylated Raptor (pRaptor) forms and HIF1α were determined by Western blot. Upper panel, representative Western blot of three different experiments. β-tubulin (β-Tub) serves as a loading control. Lower panel, densitometric analyses of bands represented as the mean of the ratio pAMPK/AMPK or pACC/ACC. (B) Cell viability monitored by MTT assay in PC-3 and LNCaP cells treated with vehicle, 25 µM and 50 μM compound 8c alone or in the presence of 5 μM Dorsomorphin or transfected with control siRNA (siC) or α1AMPK-selective siRNA (siAMPK). (C) LNCaP cells were treated with vehicle, 25 µM compound 8c, 25 µM compound 8c + 5 μM Dorsomorphin (8c + D) or 5 μM Dorsomorphin (D), for 24 hours and levels of Androgen Receptor (AR), Prostate specific antigen (PSA) and Prostate specific membrane antigen (PSMA) were determined by Western blot.Values were normalized with the control and represent the mean ± SD of at least three independent experiments. *p < 0.05 and **p < 0.01 compared to control and ^#p < 0.05 and ^##p < 0.01 compared with 8c-treated group by the Student’s t-test. […]

O=C1Nc2ccccc2C1(F)Cc1ccc(-c2ccccc2)o1 (stereo not shown) [Compound 8c, 3-fluoro-3-((5-phenylfuran-2-yl)methyl)indolin-2-one]
expression of HIF-1A [1]: expression of HIF-1A was decreased
increase of AMPK α1β1γ1 activity [2]: 75%
subG0 cells [3]: increase in subG0 cells
expression of AR [4]: markedly reduced the expression of AR
